Tests used:
Test in all cases: relative viability (nuclei count vs DMSO), 5 days (fraction); higher = more cells survive
HARA = tested on: HARA
How it was run: (§1)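 Five library-drug doses in √10 steps were combined with a fixed anchor-drug dose, or a single drug was given alone, by pin tool to lung cancer cell lines in 1536-well plates the day after seeding. Nuclei were stained and counted after 5 days. Relative viability is the nuclei count in treated wells over that in vehicle wells, taken as the median of duplicate plates.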

PC-14 = tested on: PC-14
How it was run: as §1

EKVX = tested on: EKVX
How it was run: as §1

NCI-H358 = tested on: NCI-H358
How it was run: as §1

NCI-H1993 = tested on: NCI-H1993
How it was run: as §1

UMC-11 = tested on: UMC-11
How it was run: as §1

NCI-H1395 = tested on: NCI-H1395
How it was run: as §1

NCI-H1355 = tested on: NCI-H1355
How it was run: as §1

NCI-H322M = tested on: NCI-H322M
How it was run: as §1

NCI-H2347 = tested on: NCI-H2347
How it was run: as §1

HOP-62 = tested on: HOP-62
How it was run: as §1

NCI-H647 = tested on: NCI-H647
How it was run: as §1

NCI-H522 = tested on: NCI-H522
How it was run: as §1

NCI-H2009 = tested on: NCI-H2009
How it was run: as §1

NCI-H2170 = tested on: NCI-H2170
How it was run: as §1

NCI-H2228 = tested on: NCI-H2228
How it was run: as §1

NCI-H1734 = tested on: NCI-H1734
How it was run: as §1

COR-L23 = tested on: COR-L23
How it was run: as §1

NCI-H838 = tested on: NCI-H838
How it was run: as §1

NCI-H1793 = tested on: NCI-H1793
How it was run: as §1

SK-MES-1 = tested on: SK-MES-1
How it was run: as §1

NCI-H1755 = tested on: NCI-H1755
How it was run: as §1

COR-L 105 = tested on: COR-L 105
How it was run: as §1

NCI-H2342 = tested on: NCI-H2342
How it was run: as §1

Compound: Clc1ccc(Nc2nnc(Cc3ccncc3)c3ccccc23)cc1 [Vatalanib] + COc1cccc2cc(-c3nc([C@H]4CC[C@H](C(=O)O)CC4)n4ncnc(N)c34)[nH]c12 [OSI-027] (partner 0.5 µM)
- relative viability (HARA; first compound 0.04 µM): 0.506
- relative viability (HARA; first compound 0.1265 µM): 0.595
- relative viability (HARA; first compound 0.4 µM): 0.71
- relative viability (HARA; first compound 1.265 µM): 0.492
- relative viability (HARA; first compound 4 µM): 0.422
- relative viability (PC-14; first compound 0.04 µM): 1.05
- relative viability (PC-14; first compound 0.1265 µM): 0.782
- relative viability (PC-14; first compound 0.4 µM): 0.844
- relative viability (PC-14; first compound 1.265 µM): 0.672
- relative viability (PC-14; first compound 4 µM): 0.849
- relative viability (EKVX; first compound 0.04 µM): 0.743
- relative viability (EKVX; first compound 0.1265 µM): 0.663
- relative viability (EKVX; first compound 0.4 µM): 0.663
- relative viability (EKVX; first compound 4 µM): 0.643
- relative viability (NCI-H358; first compound 0.04 µM): 0.811
- relative viability (NCI-H358; first compound 0.1265 µM): 0.678
- relative viability (NCI-H358; first compound 0.4 µM): 0.747
- relative viability (NCI-H358; first compound 1.265 µM): 0.684
- relative viability (NCI-H358; first compound 4 µM): 0.698
- relative viability (NCI-H1993; first compound 0.04 µM): 0.55
- relative viability (NCI-H1993; first compound 0.1265 µM): 0.558
- relative viability (NCI-H1993; first compound 0.4 µM): 0.554
- relative viability (NCI-H1993; first compound 1.265 µM): 0.594
- relative viability (NCI-H1993; first compound 4 µM): 0.58
- relative viability (UMC-11; first compound 0.04 µM): 0.461
- relative viability (UMC-11; first compound 0.1265 µM): 0.487
- relative viability (UMC-11; first compound 0.4 µM): 0.44
- relative viability (UMC-11; first compound 1.265 µM): 0.433
- relative viability (UMC-11; first compound 4 µM): 0.518
- relative viability (NCI-H1395; first compound 0.04 µM): 0.632
- relative viability (NCI-H1395; first compound 0.1265 µM): 0.634
- relative viability (NCI-H1395; first compound 0.4 µM): 0.597
- relative viability (NCI-H1395; first compound 1.265 µM): 0.651
- relative viability (NCI-H1395; first compound 4 µM): 0.604
- relative viability (NCI-H1355; first compound 0.04 µM): 0.427
- relative viability (NCI-H1355; first compound 0.1265 µM): 0.431
- relative viability (NCI-H1355; first compound 0.4 µM): 0.435
- relative viability (NCI-H1355; first compound 1.265 µM): 0.413
- relative viability (NCI-H1355; first compound 4 µM): 0.34
- relative viability (NCI-H322M; first compound 0.04 µM): 0.573
- relative viability (NCI-H322M; first compound 0.1265 µM): 0.546
- relative viability (NCI-H322M; first compound 0.4 µM): 0.493
- relative viability (NCI-H322M; first compound 1.265 µM): 0.52
- relative viability (NCI-H322M; first compound 4 µM): 0.481
- relative viability (NCI-H2347; first compound 0.04 µM): 0.397
- relative viability (NCI-H2347; first compound 0.1265 µM): 0.391
- relative viability (NCI-H2347; first compound 0.4 µM): 0.488
- relative viability (NCI-H2347; first compound 1.265 µM): 0.464
- relative viability (NCI-H2347; first compound 4 µM): 0.364
- relative viability (HOP-62; first compound 0.04 µM): 0.906
- relative viability (HOP-62; first compound 0.1265 µM): 0.804
- relative viability (HOP-62; first compound 0.4 µM): 0.833
- relative viability (HOP-62; first compound 1.265 µM): 0.741
- relative viability (HOP-62; first compound 4 µM): 0.875
- relative viability (NCI-H647; first compound 0.04 µM): 0.654
- relative viability (NCI-H647; first compound 0.1265 µM): 0.597
- relative viability (NCI-H647; first compound 0.4 µM): 0.634
- relative viability (NCI-H647; first compound 1.265 µM): 0.568
- relative viability (NCI-H647; first compound 4 µM): 0.671
- relative viability (NCI-H522; first compound 0.04 µM): 0.703
- relative viability (NCI-H522; first compound 0.1265 µM): 0.677
- relative viability (NCI-H522; first compound 0.4 µM): 0.73
- relative viability (NCI-H522; first compound 1.265 µM): 0.714
- relative viability (NCI-H522; first compound 4 µM): 0.796
- relative viability (NCI-H2009; first compound 0.04 µM): 0.73
- relative viability (NCI-H2009; first compound 0.1265 µM): 0.561
- relative viability (NCI-H2009; first compound 0.4 µM): 0.647
- relative viability (NCI-H2009; first compound 1.265 µM): 0.58
- relative viability (NCI-H2009; first compound 4 µM): 0.626
- relative viability (NCI-H2170; first compound 0.04 µM): 0.707
- relative viability (NCI-H2170; first compound 0.1265 µM): 0.743
- relative viability (NCI-H2170; first compound 0.4 µM): 0.782
- relative viability (NCI-H2170; first compound 1.265 µM): 0.63
- relative viability (NCI-H2170; first compound 4 µM): 0.769
- relative viability (NCI-H2228; first compound 0.04 µM): 0.568
- relative viability (NCI-H2228; first compound 0.1265 µM): 0.566
- relative viability (NCI-H2228; first compound 0.4 µM): 0.604
- relative viability (NCI-H2228; first compound 1.265 µM): 0.589
- relative viability (NCI-H2228; first compound 4 µM): 0.504
- relative viability (NCI-H1734; first compound 0.04 µM): 0.675
- relative viability (NCI-H1734; first compound 0.1265 µM): 0.463
- relative viability (NCI-H1734; first compound 0.4 µM): 0.697
- relative viability (NCI-H1734; first compound 1.265 µM): 0.563
- relative viability (NCI-H1734; first compound 4 µM): 0.589
- relative viability (COR-L23; first compound 0.04 µM): 0.814
- relative viability (COR-L23; first compound 0.1265 µM): 0.765
- relative viability (COR-L23; first compound 0.4 µM): 0.891
- relative viability (COR-L23; first compound 1.265 µM): 0.709
- relative viability (COR-L23; first compound 4 µM): 0.722
- relative viability (NCI-H838; first compound 0.04 µM): 0.428
- relative viability (NCI-H838; first compound 0.1265 µM): 0.384
- relative viability (NCI-H838; first compound 0.4 µM): 0.379
- relative viability (NCI-H838; first compound 1.265 µM): 0.404
- relative viability (NCI-H838; first compound 4 µM): 0.443
- relative viability (NCI-H1793; first compound 0.04 µM): 0.268
- relative viability (NCI-H1793; first compound 0.1265 µM): 0.226
- relative viability (NCI-H1793; first compound 0.4 µM): 0.309
- relative viability (NCI-H1793; first compound 1.265 µM): 0.217
- relative viability (NCI-H1793; first compound 4 µM): 0.184
- relative viability (SK-MES-1; first compound 0.04 µM): 0.634
- relative viability (SK-MES-1; first compound 0.1265 µM): 0.588
- relative viability (SK-MES-1; first compound 0.4 µM): 0.77
- relative viability (SK-MES-1; first compound 1.265 µM): 0.578
- relative viability (SK-MES-1; first compound 4 µM): 0.575
- relative viability (NCI-H1755; first compound 0.04 µM): 0.82
- relative viability (NCI-H1755; first compound 0.1265 µM): 0.747
- relative viability (NCI-H1755; first compound 0.4 µM): 0.705
- relative viability (NCI-H1755; first compound 1.265 µM): 0.654
- relative viability (NCI-H1755; first compound 4 µM): 0.634
- relative viability (COR-L 105; first compound 0.04 µM): 0.694
- relative viability (COR-L 105; first compound 0.1265 µM): 0.59
- relative viability (COR-L 105; first compound 0.4 µM): 0.721
- relative viability (COR-L 105; first compound 1.265 µM): 0.721
- relative viability (COR-L 105; first compound 4 µM): 0.561
- relative viability (NCI-H2342; first compound 0.04 µM): 0.691
- relative viability (NCI-H2342; first compound 0.1265 µM): 0.556
- relative viability (NCI-H2342; first compound 0.4 µM): 0.616
- relative viability (NCI-H2342; first compound 1.265 µM): 0.592
- relative viability (NCI-H2342; first compound 4 µM): 0.601

— the supplement of paper PMC10307832
